For data set [1], the target named is T1, C-C chemokine receptor type 3 (Homo sapiens, UniProt P51677).
T1 sequence (P51677 whole entry): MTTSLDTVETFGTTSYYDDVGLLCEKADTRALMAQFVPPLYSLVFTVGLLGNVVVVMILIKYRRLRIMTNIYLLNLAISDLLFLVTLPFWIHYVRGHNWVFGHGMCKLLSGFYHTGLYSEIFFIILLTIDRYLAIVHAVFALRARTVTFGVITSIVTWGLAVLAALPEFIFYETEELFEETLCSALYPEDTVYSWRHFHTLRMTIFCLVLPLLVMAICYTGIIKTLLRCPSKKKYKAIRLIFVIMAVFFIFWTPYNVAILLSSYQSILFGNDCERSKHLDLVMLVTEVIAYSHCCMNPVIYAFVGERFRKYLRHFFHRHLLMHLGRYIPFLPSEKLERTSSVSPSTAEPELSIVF
Nature of the data set: Inhibition of CCR3 receptor.

Data set [2] deals with T2, Gonadotropin-releasing hormone receptor (Homo sapiens, UniProt P30968).
T2 sequence (P30968 whole entry): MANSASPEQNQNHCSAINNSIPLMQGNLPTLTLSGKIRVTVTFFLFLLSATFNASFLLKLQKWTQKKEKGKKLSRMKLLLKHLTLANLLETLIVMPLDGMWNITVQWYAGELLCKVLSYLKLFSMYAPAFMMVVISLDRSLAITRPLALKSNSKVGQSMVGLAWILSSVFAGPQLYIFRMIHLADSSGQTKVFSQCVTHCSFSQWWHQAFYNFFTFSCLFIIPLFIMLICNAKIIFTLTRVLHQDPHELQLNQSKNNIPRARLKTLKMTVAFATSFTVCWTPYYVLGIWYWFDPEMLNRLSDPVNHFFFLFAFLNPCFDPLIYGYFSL
The data set can be described thus: Inhibition of GnRH receptor.

A short description of data set [3]: Aqueous solubility of the compound. Particulars: water (aqueous). The format is physicochemical.

Structures are written as SMILES. In brackets after ≈: the same amount, converted by molar mass.

Take `Fc1ccc(SCCCN2CCC(n3c(CC(F)(F)F)nc4cc(F)ccc43)CC2)cc1`: the Ki in data set [1] amounted to 9 nM. Turning to `CCc1cc(CN2CCN(c3cccc4[nH]c(-c5ccc(C(C)(C)C)cc5)nc34)CC2)nn1C`, in data set [2], the IC50 came out at 7 nM. Also, the solubility in data set [3] is 55 µg/mL (≈ 120 µM). On to `CCCn1cc(CN2CCN(c3cccc4[nH]c(-c5ccc(C(C)(C)C)cc5)nc34)CC2)nc1C`, for which, in data set [3], the solubility turned out to be 100 µg/mL (≈ 212 µM).

As to `Fc1ccc2c(c1)nc(CC(F)(F)F)n2C1CCNCC1`, in data set [1], the affinity corresponds to a Ki of 100 nM.

The values are drawn from ChEMBL document CHEMBL2157888, “The therapeutic journey of benzimidazoles: a review” (Bioorg Med Chem, 2012).
